Results taken from ChEMBL document CHEMBL5723584 (2023).

How the values were obtained:
[1] = biological target: T1, Citron Rho-interacting kinase (Homo sapiens, UniProt O14578); assay: NanoLuc NanoBRET (CITKD)
[2] = biological target: T1, Citron Rho-interacting kinase; assay: NanoLuc NanoBRET (CIT)

T1 sequence (O14578 whole entry): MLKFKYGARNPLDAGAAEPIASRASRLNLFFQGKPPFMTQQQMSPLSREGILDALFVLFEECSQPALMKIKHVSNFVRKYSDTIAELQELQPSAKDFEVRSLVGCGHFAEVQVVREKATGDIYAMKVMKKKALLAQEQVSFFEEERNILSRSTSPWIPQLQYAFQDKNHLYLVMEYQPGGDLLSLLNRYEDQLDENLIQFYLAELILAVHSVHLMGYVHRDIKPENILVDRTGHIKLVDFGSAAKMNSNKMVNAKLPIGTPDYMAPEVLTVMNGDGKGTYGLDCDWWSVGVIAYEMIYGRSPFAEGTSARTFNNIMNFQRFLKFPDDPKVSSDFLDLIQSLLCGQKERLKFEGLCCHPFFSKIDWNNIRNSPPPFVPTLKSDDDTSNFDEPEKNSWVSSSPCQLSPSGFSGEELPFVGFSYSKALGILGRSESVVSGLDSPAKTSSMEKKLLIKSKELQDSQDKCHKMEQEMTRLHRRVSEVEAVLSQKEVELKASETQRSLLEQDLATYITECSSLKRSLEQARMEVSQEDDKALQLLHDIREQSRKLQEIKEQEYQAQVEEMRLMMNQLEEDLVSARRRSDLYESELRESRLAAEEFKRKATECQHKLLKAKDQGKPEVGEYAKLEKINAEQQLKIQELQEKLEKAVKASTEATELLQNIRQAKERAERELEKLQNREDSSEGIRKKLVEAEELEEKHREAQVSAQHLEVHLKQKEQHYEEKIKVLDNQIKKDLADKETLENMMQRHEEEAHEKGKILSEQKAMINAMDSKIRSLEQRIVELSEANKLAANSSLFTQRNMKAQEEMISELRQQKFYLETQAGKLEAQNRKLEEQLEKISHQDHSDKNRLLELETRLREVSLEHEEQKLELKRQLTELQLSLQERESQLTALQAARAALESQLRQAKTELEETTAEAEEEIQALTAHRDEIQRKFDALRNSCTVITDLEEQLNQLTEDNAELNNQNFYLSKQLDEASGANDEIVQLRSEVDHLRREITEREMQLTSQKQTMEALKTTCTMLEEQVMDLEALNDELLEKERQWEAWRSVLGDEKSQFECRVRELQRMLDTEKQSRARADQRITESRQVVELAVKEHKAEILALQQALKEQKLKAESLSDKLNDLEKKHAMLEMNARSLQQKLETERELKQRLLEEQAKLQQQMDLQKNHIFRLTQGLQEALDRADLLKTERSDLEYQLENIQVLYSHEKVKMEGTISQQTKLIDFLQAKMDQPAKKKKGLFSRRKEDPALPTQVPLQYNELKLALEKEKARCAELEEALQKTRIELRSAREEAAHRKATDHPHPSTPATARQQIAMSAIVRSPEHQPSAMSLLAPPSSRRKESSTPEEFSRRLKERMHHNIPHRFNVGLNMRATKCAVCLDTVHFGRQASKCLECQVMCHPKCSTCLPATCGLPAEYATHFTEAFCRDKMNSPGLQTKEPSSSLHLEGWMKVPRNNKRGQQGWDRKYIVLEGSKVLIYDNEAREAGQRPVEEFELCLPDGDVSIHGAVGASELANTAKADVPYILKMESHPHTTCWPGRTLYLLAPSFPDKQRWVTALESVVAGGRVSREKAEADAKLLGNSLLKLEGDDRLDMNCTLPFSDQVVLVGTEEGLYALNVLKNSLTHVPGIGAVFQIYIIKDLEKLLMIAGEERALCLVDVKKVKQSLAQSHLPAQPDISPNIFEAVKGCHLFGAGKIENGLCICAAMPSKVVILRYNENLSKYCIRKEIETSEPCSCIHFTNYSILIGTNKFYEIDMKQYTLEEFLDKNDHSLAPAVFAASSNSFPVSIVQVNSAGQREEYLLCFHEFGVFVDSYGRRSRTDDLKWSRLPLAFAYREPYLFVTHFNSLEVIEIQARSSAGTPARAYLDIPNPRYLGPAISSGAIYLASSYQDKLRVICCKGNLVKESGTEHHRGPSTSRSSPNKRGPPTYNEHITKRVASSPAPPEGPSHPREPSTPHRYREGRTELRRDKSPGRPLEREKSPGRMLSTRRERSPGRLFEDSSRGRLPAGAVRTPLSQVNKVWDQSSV

Kd [1]: no binding
Kd [2]: no binding
Compound: Cc1cc2c(-c3ccc(NC(=O)[C@H](N)CC(C)(C)C)cc3C)cncc2[nH]1
